Consider 12 molecules from PubChem BioAssay (NCI).

Test in all cases: NCI-60 cell line screen, 48 h
In assay [1] the test system is 786-0 renal.
The test system of assay [2] is ACHN renal.
Assay [3] concerns CCRF-CEM leukemia.
In assay [4] the test system is COLO 205 colon.
Assay [5] deals with HCT-116 colon.
For assay [6], the system named is IGROV1 ovarian.
Assay [7] deals with K-562 leukemia.
Assay [8] relates to SNB-19 CNS.
Assay [9] concerns UO-31 renal.
The test system of assay [10] is HL-60(TB) leukemia.

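Compound exposure: 48 hours, 5 concentrations, 96-well plates. Here, GI50 denotes the concentration required for 50% inhibition of growth. TGI is the concentration that stops growth completely.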 Where only a bound is given, the exact number is not on record here.

For `c1ccc2c(Nc3ccc4c(c3)OCO4)c3ccoc3nc2c1`, the GI50 was 17.3 µM in assay [1]; 20.2 µM in [2]; 15.2 µM in [3]; 20.2 µM in assay [4]; 14.7 µM in assay [5]; 31.5 µM in assay [6]. In addition, the GI50 is 3.27 µM in [7], 26.5 µM in assay [8] and 23.6 µM in assay [9]. The TGI in assay [1] is 40.3 µM; in assay [2], 70.3 µM; in assay [3], above 100 µM; in assay [4], above 100 µM; in assay [5], 37.3 µM; in assay [6], above 100 µM. Moreover, the TGI in assay [7] was 27.8 µM; in [8], 81.3 µM; in assay [9] it was above 100 µM.
In the case of `O=C(/C=C/c1ccc(OCCCOc2ccc(/C=C/C(=O)c3ccc(Cl)cc3)cc2)cc1)c1ccc(Cl)cc1`, the TGI in assay [1], in assay [2], in [3], in assay [4], in assay [5] and in assay [10] was above 100 µM in each case. For the same molecule, the TGI in assay [6], in [7] and in assay [8] was above 100 µM in each case.
In the case of `CCC1C(=O)OCc2c1cc1n(c2=O)Cc2ccccc2-1` (configuration not stated), the TGI in [1], in assay [2], in assay [3], in assay [5], in assay [10] and in assay [6] was above 100 µM each time. Moreover, the TGI in assay [7], in assay [8] and in assay [9] was above 100 µM throughout.
For the molecule `COC(=O)C1=C(c2cc(OC)c(OC)c(OC)c2)OC(c2cc(OC)c(OC)c(OC)c2)C1` (configuration not stated), the TGI was 70.8 µM in [1]; 65.4 µM in assay [2]; above 100 µM in assay [3]; 33 µM in assay [4]; 32.9 µM in [5]; 46 µM in [6]. Moreover, the TGI in [7] was above 100 µM; in assay [8] it was above 100 µM; in [9] it was 40 µM.
Take `CCCN(CCC)c1c([N+](=O)[O-])cc(C(N)=O)cc1[N+](=O)[O-]`: the TGI was above 100 µM in assay [1]; above 100 µM in [2]; above 100 µM in [3]; above 100 µM in assay [4]; above 100 µM in [5]; 87.4 µM in assay [10]. Further, the TGI in assay [6], in assay [7] and in [9] was above 100 µM in each case.
Turning to `c1cc[c]([Sn]([O]c2cccc3cccnc23)([c]2ccccc2)[c]2ccccc2)cc1`, the GI50 in assay [1] was 0.015 µM; in assay [2], 0.0168 µM; in [3] it was 0.0115 µM; in [4] it was 0.0161 µM; in assay [5] it was below 0.01 µM; in assay [6] it was 0.0196 µM. For the same molecule, the GI50 was below 0.01 µM in [7], 0.04 µM in [8] and 0.0163 µM in assay [9]. Besides, the TGI was 0.029 µM in assay [1]; 0.0332 µM in assay [2]; 0.11 µM in assay [3]; 0.0302 µM in assay [4]; 0.0198 µM in [5]; 0.0428 µM in assay [6]. The TGI in assay [7] is 0.0521 µM; in assay [8], 0.127 µM; in [9], 0.0301 µM.
On to `COc1ccccc1NC(=O)NS(=O)(=O)c1ccccc1`, for which the TGI in [1], in [2], in [4], in assay [5], in assay [10] and in [8] was above 100 µM throughout. In addition, the TGI in assay [9] was above 100 µM.
Consider `Cn1ccnc1C(=O)/C=C/c1ccc(CC(=O)Nc2cc(F)c(F)c(F)c2)cc1`, for which the GI50 in assay [1] was 2.44 µM; in assay [2], 4.53 µM; in assay [4] it was 2.53 µM; in assay [5] it was 1.22 µM; in assay [10] it was 0.716 µM; in assay [6] it was 1.4 µM. Also, the GI50 was 0.808 µM in assay [7], 2.87 µM in [8] and 1.7 µM in [9]. Moreover, the TGI in assay [1] is 5.5 µM; in [2], 19.2 µM; in [4] it was 7.08 µM; in assay [5], 4.42 µM; in assay [10] it was 2.45 µM; in assay [6], 8.22 µM. Further, the figures for the TGI in assay [7], in assay [8] and in assay [9] were above 25 µM, 6.59 µM and 4.96 µM, respectively.
For `C/C(CC(=O)Nc1cc(Cl)c(Cl)cc1Cl)=N\NS(=O)(=O)c1ccc(C)cc1`, the TGI in assay [1] is above 100 µM; in assay [2], 79.8 µM; in [3], above 100 µM; in assay [4], 61.1 µM; in [5], 59.6 µM; in assay [10], 62.9 µM. In addition, the values for the TGI in assay [6], in assay [7] and in assay [9] were above 100 µM, above 100 µM and 52.3 µM, respectively.
As to `CCC[CH2][Sn]1([CH2]CCC)[O]N=Cc2ccccc2[O]1`, the GI50 is 0.608 µM in assay [1]; 1.18 µM in assay [2]; 0.713 µM in [4]; 1.43 µM in assay [5]; 0.183 µM in assay [10]; 1.03 µM in assay [6]. The GI50 is 0.192 µM in [7], 1.09 µM in assay [8] and 1.33 µM in assay [9]. For the same molecule, the TGI in assay [1] amounted to 1.89 µM; in assay [2], 2.43 µM; in [4] it was 1.96 µM; in assay [5], 2.73 µM; in assay [10], 0.726 µM; in [6], 2.25 µM. Besides, the TGI is 1.33 µM in assay [7], 2.33 µM in assay [8] and 2.61 µM in [9].
For the molecule `CCc1cc2c(c3[nH]ccc13)[C@@H](C)C[C@H]2C`, the TGI in assay [1] was determined as 28.2 µM; in assay [2] it was 30.9 µM; in assay [3] it was 43.4 µM; in assay [4], 38.1 µM; in assay [5], 30.1 µM; in assay [10], 48.8 µM. Further, the TGI worked out at 36.2 µM in [6], 45 µM in assay [7] and 32.3 µM in assay [9].
Turning to `COc1cc2ccc(C(=O)O)cc2cc1OC`, the TGI in [1], in [2], in assay [3], in assay [4], in [5] and in assay [6] was above 100 µM in each case. In addition, the TGI in assay [7], in [8] and in assay [9] was above 100 µM each time.
